Peptide text beside a SMILES is read from it. * marks the point of attachment. X2 = CC(=O)N[C@@H]1[C@@H](O)[C@H](O[C@@H]2O[C@H](CO[C@]3(C(=O)O)C[C@H](O)[C@@H](NC(C)=O)[C@H]([C@H](O)[C@H](O)CO)O3)[C@H](O)[C@H](O)[C@H]2O)[C@@H](CO)O[C@H]1N*; X1 = CC(=O)N[C@@H]1[C@@H](O)[C@H](O[C@@H]2O[C@H](CO)[C@H](O)[C@H](O)[C@H]2O)[C@@H](CO)O[C@H]1N*
Assays:
GLP-1 receptor [1] = molecular target: T1, GLP-1 receptor (Homo sapiens, UniProt P43220); assay: Assay for production of cAMP
Procedure: Assay for Production of cAMP
After stirring at room temperature for an hour, the cells were lysed with Triton X-100 (final concentration: 1%).
Quantity of cAMP was determined using cAMP Femtomolar Kit (CIS Bio International). The reaction solution (1 μL) was moved to a new 384-well plate and diluted by adding 9 μL of dilution buffer. Next, each 5 μL of cAMP-XL665 solution and anti-cAMP cryptate solution of the Kit was added, the mixture was incubated at room temperature for an hour, and time-resolved fluorescence was measured using RUBYstar (BMG LABTECH).

GLP-1 receptor [2] = molecular target: T1, GLP-1 receptor
Procedure: After being incubated at room temperature for 2 hours, the solution was filtered through a unifilter 96GF/C plate (Perkin-Elmer) pretreated with 1% polyethylenimine containing 0.5% BSA, washed with 25 mM HEPES buffer solution (pH 7.4) containing 0.5% BSA, and radioactivity remained on the filter was measured by a gamma counter (Top Counter; Perkin-Elmer).

T1 sequence (P43220 24-463, species assumed): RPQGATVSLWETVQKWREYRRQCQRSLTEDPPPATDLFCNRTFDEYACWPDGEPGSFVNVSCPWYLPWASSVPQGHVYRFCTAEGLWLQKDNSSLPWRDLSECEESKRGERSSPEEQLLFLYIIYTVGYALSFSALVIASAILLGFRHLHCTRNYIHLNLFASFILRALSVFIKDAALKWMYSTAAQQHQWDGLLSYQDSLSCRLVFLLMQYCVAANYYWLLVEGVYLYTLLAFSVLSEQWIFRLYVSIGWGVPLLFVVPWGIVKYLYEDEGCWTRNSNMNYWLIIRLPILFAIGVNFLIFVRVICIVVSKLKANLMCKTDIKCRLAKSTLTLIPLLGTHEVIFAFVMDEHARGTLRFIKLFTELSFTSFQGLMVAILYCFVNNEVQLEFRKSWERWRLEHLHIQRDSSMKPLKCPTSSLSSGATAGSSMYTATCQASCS

Row | Compound | EC50 (GLP-1 receptor [1]) | IC50 (GLP-1 receptor [2])
1 | CC[C@H](C)[C@H](NC(=O)[C@H](Cc1ccccc1)NC(=O)[C@H](CCC(=O)O)NC(=O)[C@H](CCCCN)NC(=O)[C@H](C)NC(=O)[C@H](C)NC(=O)[C@H](CCC(N)=O)NC(=O)CNC(=O)[C@H](CCC(=O)O)NC(=O)[C@H](CC(C)C)NC(=O)[C@H](Cc1ccc(O)cc1)NC(=O)[C@H](CO)NC(=O)[C@H](CO)NC(=O)[C@@H](NC(=O)[C@H](CC(=O)O)NC(=O)[C@H](CO)NC(=O)[C@@H](NC(=O)[C@H](Cc1ccccc1)NC(=O)[C@@H](NC(=O)CNC(=O)[C@H](CCC(=O)O)NC(=O)[C@H](C)NC(=O)[C@@H](N)Cc1c[nH]cn1)[C@@H](C)O)[C@@H](C)O)C(C)C)C(=O)N[C@@H](C)C(=O)N[C@@H](Cc1c[nH]c2ccccc12)C(=O)N[C@@H](CC(C)C)C(=O)N[C@H](C(=O)N[C@@H](CSCC(=O)N[C@@H](CCC(=O)N[C@@H](CC(=O)N[C@@H]1O[C@H](CO)[C@@H](O[C@@H]2O[C@H](CO)[C@@H](O[C@@H]3O[C@H](CO[C@H]4O[C@H](CO)[C@@H](O)[C@H](O)[C@@H]4O[C@@H]4O[C@H](CO)[C@@H](O[C@@H]5O[C@H](CO[C@]6(C(=O)O)C[C@H](O)[C@@H](NC(C)=O)[C@H]([C@H](O)[C@H](O)CO)O6)[C@H](O)[C@H](O)[C@H]5O)[C@H](O)[C@H]4NC(C)=O)[C@@H](O)[C@H](O[C@H]4O[C@H](CO)[C@@H](O)[C@H](O)[C@@H]4O[C@@H]4O[C@H](CO)[C@@H](O[C@@H]5O[C@H](CO[C@]6(C(=O)O)C[C@H](O)[C@@H](NC(C)=O)[C@H]([C@H](O)[C@H](O)CO)O6)[C@H](O)[C@H](O)[C@H]5O)[C@H](O)[C@H]4NC(C)=O)[C@@H]3O)[C@H](O)[C@H]2NC(C)=O)[C@H](O)[C@H]1NC(C)=O)C(=O)O)C(=O)N[C@@H](CC(=O)N[C@@H]1O[C@H](CO)[C@@H](O[C@@H]2O[C@H](CO)[C@@H](O[C@@H]3O[C@H](CO[C@H]4O[C@H](CO)[C@@H](O)[C@H](O)[C@@H]4O[C@@H]4O[C@H](CO)[C@@H](O[C@@H]5O[C@H](CO[C@]6(C(=O)O)C[C@H](O)[C@@H](NC(C)=O)[C@H]([C@H](O)[C@H](O)CO)O6)[C@H](O)[C@H](O)[C@H]5O)[C@H](O)[C@H]4NC(C)=O)[C@@H](O)[C@H](O[C@H]4O[C@H](CO)[C@@H](O)[C@H](O)[C@@H]4O[C@@H]4O[C@H](CO)[C@@H](O[C@@H]5O[C@H](CO[C@]6(C(=O)O)C[C@H](O)[C@@H](NC(C)=O)[C@H]([C@H](O)[C@H](O)CO)O6)[C@H](O)[C@H](O)[C@H]5O)[C@H](O)[C@H]4NC(C)=O)[C@@H]3O)[C@H](O)[C@H]2NC(C)=O)[C@H](O)[C@H]1NC(C)=O)C(=O)O)C(=O)NCC(=O)N[C@@H](CCCNC(=N)N)C(N)=O)C(C)C [GL34CE2] | 3.4 nM | 20 nM
2 | CC[C@H](C)[C@H](NC(=O)[C@H](Cc1ccccc1)NC(=O)[C@H](CCC(=O)O)NC(=O)[C@H](CCCCN)NC(=O)[C@H](C)NC(=O)[C@H](C)NC(=O)[C@H](CCC(N)=O)NC(=O)CNC(=O)[C@H](CCC(=O)O)NC(=O)[C@H](CC(C)C)NC(=O)[C@H](Cc1ccc(O)cc1)NC(=O)[C@H](CO)NC(=O)[C@H](CO)NC(=O)[C@@H](NC(=O)[C@H](CC(=O)O)NC(=O)[C@H](CO)NC(=O)[C@@H](NC(=O)[C@H](Cc1ccccc1)NC(=O)[C@@H](NC(=O)CNC(=O)[C@H](CCC(=O)O)NC(=O)[C@H](CC(=O)N[C@@H]1O[C@H](CO)[C@@H](O[C@@H]2O[C@H](CO)[C@H](O)[C@H](O)[C@H]2O)[C@H](O)[C@H]1NC(C)=O)NC(=O)[C@@H](N)Cc1c[nH]cn1)[C@@H](C)O)[C@@H](C)O)C(C)C)C(=O)N[C@@H](C)C(=O)N[C@@H](Cc1c[nH]c2ccccc12)C(=O)N[C@@H](CC(C)C)C(=O)N[C@H](C(=O)N[C@@H](CCCCN)C(=O)NCC(=O)N[C@@H](CCCNC(=N)N)C(N)=O)C(C)C [GL08NL] | 284 nM | > 100 nM
3 | CC[C@H](C)[C@H](NC(=O)[C@H](Cc1ccccc1)NC(=O)[C@H](CCC(=O)O)NC(=O)[C@H](CCCCN)NC(=O)[C@H](C)NC(=O)[C@H](C)NC(=O)[C@H](CCC(N)=O)NC(=O)CNC(=O)[C@H](CCC(=O)O)NC(=O)[C@H](CC(C)C)NC(=O)[C@H](CC(=O)N[C@@H]1O[C@H](CO)[C@@H](O[C@@H]2O[C@H](CO)[C@H](O)[C@H](O)[C@H]2O)[C@H](O)[C@H]1NC(C)=O)NC(=O)[C@H](CO)NC(=O)[C@H](CO)NC(=O)[C@@H](NC(=O)[C@H](CC(=O)O)NC(=O)[C@H](CO)NC(=O)[C@@H](NC(=O)[C@H](Cc1ccccc1)NC(=O)[C@@H](NC(=O)CNC(=O)[C@H](CCC(=O)O)NC(=O)[C@H](C)NC(=O)[C@@H](N)Cc1c[nH]cn1)[C@@H](C)O)[C@@H](C)O)C(C)C)C(=O)N[C@@H](C)C(=O)N[C@@H](Cc1c[nH]c2ccccc12)C(=O)N[C@@H](CC(C)C)C(=O)N[C@H](C(=O)N[C@@H](CCCCN)C(=O)NCC(=O)N[C@@H](CCCNC(=N)N)C(N)=O)C(C)C [GL19NL] (H-HAEGTFTSDVSSD(X1)LEGQAAKEFIAWLVKGR-NH2; N-terminus assumed) | 8.3 nM | 38 nM
4 | CC[C@H](C)[C@H](NC(=O)[C@H](Cc1ccccc1)NC(=O)[C@H](CCC(=O)O)NC(=O)[C@H](CCCCN)NC(=O)[C@H](C)NC(=O)[C@H](C)NC(=O)[C@H](CCC(N)=O)NC(=O)CNC(=O)[C@H](CCC(=O)O)NC(=O)[C@H](CC(C)C)NC(=O)[C@H](CC(=O)N[C@@H]1O[C@H](CO)[C@@H](O[C@@H]2O[C@H](CO[C@]3(C(=O)O)C[C@H](O)[C@@H](NC(C)=O)[C@H]([C@H](O)[C@H](O)CO)O3)[C@H](O)[C@H](O)[C@H]2O)[C@H](O)[C@H]1NC(C)=O)NC(=O)[C@H](CO)NC(=O)[C@H](CO)NC(=O)[C@@H](NC(=O)[C@H](CC(=O)O)NC(=O)[C@H](CO)NC(=O)[C@@H](NC(=O)[C@H](Cc1ccccc1)NC(=O)[C@@H](NC(=O)CNC(=O)[C@H](CCC(=O)O)NC(=O)[C@H](C)NC(=O)[C@@H](N)Cc1c[nH]cn1)[C@@H](C)O)[C@@H](C)O)C(C)C)C(=O)N[C@@H](C)C(=O)N[C@@H](Cc1c[nH]c2ccccc12)C(=O)N[C@@H](CC(C)C)C(=O)N[C@H](C(=O)N[C@@H](CCCCN)C(=O)NCC(=O)N[C@@H](CCCNC(=N)N)C(N)=O)C(C)C [GL19NS6] (H-HAEGTFTSDVSSD(X2)LEGQAAKEFIAWLVKGR-NH2) | 50 nM | > 100 nM

Continued, values first:

Row | EC50 (GLP-1 receptor [1]) | IC50 (GLP-1 receptor [2]) | Compound
5 | 0.17 nM | 0.85 nM | CC[C@H](C)[C@H](NC(=O)[C@H](Cc1ccccc1)NC(=O)[C@H](CCC(=O)O)NC(=O)[C@H](CCCCN)NC(=O)[C@H](C)NC(=O)[C@H](C)NC(=O)[C@H](CCC(N)=O)NC(=O)CNC(=O)[C@H](CCC(=O)O)NC(=O)[C@H](CC(C)C)NC(=O)[C@H](Cc1ccc(O)cc1)NC(=O)[C@H](CO)NC(=O)[C@H](CO)NC(=O)[C@@H](NC(=O)[C@H](CC(=O)O)NC(=O)[C@H](CO)NC(=O)[C@@H](NC(=O)[C@H](Cc1ccccc1)NC(=O)[C@@H](NC(=O)CNC(=O)[C@H](CCC(=O)O)NC(=O)[C@H](C)NC(=O)[C@@H](N)Cc1c[nH]cn1)[C@@H](C)O)[C@@H](C)O)C(C)C)C(=O)N[C@@H](C)C(=O)N[C@@H](Cc1c[nH]c2ccccc12)C(=O)N[C@@H](CC(C)C)C(=O)N[C@H](C(=O)N[C@@H](CC(=O)N[C@@H]1O[C@H](CO)[C@@H](O)[C@H](O)[C@H]1NC(C)=O)C(=O)NCC(=O)N[C@@H](CCCNC(=N)N)C(N)=O)C(C)C [GL34NG]
6 | 0.92 nM | 2.9 nM | CC[C@H](C)[C@H](NC(=O)[C@H](Cc1ccccc1)NC(=O)[C@H](CCC(=O)O)NC(=O)[C@H](CC(=O)N[C@@H]1O[C@H](CO)[C@@H](O[C@@H]2O[C@H](CO[C@]3(C(=O)O)C[C@H](O)[C@@H](NC(C)=O)[C@H]([C@H](O)[C@H](O)CO)O3)[C@H](O)[C@H](O)[C@H]2O)[C@H](O)[C@H]1NC(C)=O)NC(=O)[C@H](C)NC(=O)[C@H](C)NC(=O)[C@H](CCC(N)=O)NC(=O)CNC(=O)[C@H](CCC(=O)O)NC(=O)[C@H](CC(C)C)NC(=O)[C@H](Cc1ccc(O)cc1)NC(=O)[C@H](CO)NC(=O)[C@H](CO)NC(=O)[C@@H](NC(=O)[C@H](CC(=O)O)NC(=O)[C@H](CO)NC(=O)[C@@H](NC(=O)[C@H](Cc1ccccc1)NC(=O)[C@@H](NC(=O)CNC(=O)[C@H](CCC(=O)O)NC(=O)[C@H](C)NC(=O)[C@@H](N)Cc1c[nH]cn1)[C@@H](C)O)[C@@H](C)O)C(C)C)C(=O)N[C@@H](C)C(=O)N[C@@H](Cc1c[nH]c2ccccc12)C(=O)N[C@@H](CC(C)C)C(=O)N[C@H](C(=O)N[C@@H](CCCCN)C(=O)NCC(=O)N[C@@H](CCCNC(=N)N)C(N)=O)C(C)C [GL26NS6]
7 | 1 nM | 21 nM | CC[C@H](C)[C@H](NC(=O)[C@H](Cc1ccccc1)NC(=O)[C@H](CCC(=O)O)NC(=O)[C@H](CC(=O)N[C@@H]1O[C@H](CO)[C@@H](O[C@@H]2O[C@H](CO[C@]3(C(=O)O)C[C@H](O)[C@@H](NC(C)=O)[C@H]([C@H](O)[C@H](O)CO)O3)[C@H](O)[C@H](O)[C@H]2O)[C@H](O)[C@H]1NC(C)=O)NC(=O)[C@H](C)NC(=O)[C@H](C)NC(=O)[C@H](CCC(N)=O)NC(=O)CNC(=O)[C@H](CCC(=O)O)NC(=O)[C@H](CC(C)C)NC(=O)[C@H](Cc1ccc(O)cc1)NC(=O)[C@H](CO)NC(=O)[C@H](CO)NC(=O)[C@@H](NC(=O)[C@H](CC(=O)O)NC(=O)[C@H](CO)NC(=O)[C@@H](NC(=O)[C@H](Cc1ccccc1)NC(=O)[C@@H](NC(=O)CNC(=O)[C@H](CCC(=O)O)NC(=O)[C@H](C)NC(=O)[C@@H](N)Cc1c[nH]cn1)[C@@H](C)O)[C@@H](C)O)C(C)C)C(=O)N[C@@H](C)C(=O)N[C@@H](Cc1c[nH]c2ccccc12)C(=O)N[C@@H](CC(C)C)C(=O)N[C@H](C(=O)N[C@@H](CCCCN)C(=O)NCC(=O)N[C@@H](CCCNC(=N)N)C(=O)N[C@@H](CC(=O)N[C@@H]1O[C@H](CO)[C@@H](O[C@@H]2O[C@H](CO[C@]3(C(=O)O)C[C@H](O)[C@@H](NC(C)=O)[C@H]([C@H](O)[C@H](O)CO)O3)[C@H](O)[C@H](O)[C@H]2O)[C@H](O)[C@H]1NC(C)=O)C(N)=O)C(C)C [GL2637NS6]
8 | 0.92 nM | 11 nM | H-HAEGTFTSDVSSNLEGQAAKEFIAWLVKGR-NH2 [GL19N]
